Reference: paper PMC8125337 (International Journal of Molecular Sciences, 2021)

Target: T1, TRPV1 (vanilloid receptor)
T1 construct: native receptor in hemocytes
Assay: radioligand saturation binding, rapid filtration
Assay type: cell-based, Mytilus galloprovincialis

With `C=C(C)[C@]12C[C@@H](C)[C@@]34O[C@](Cc5ccccc5)(O[C@@H]1[C@@H]3C=C(COC(=O)Cc1ccc(O)c(OC)c1)C[C@]1(O)C(=O)C(C)=C[C@@H]41)O2` [resiniferatoxin] the Kd was 0.413 ± 0.168 nM.
